In general, IC50 refers to the point on the concentration scale where inhibition reaches its midpoint.

We go through 1 molecule from ChEMBL document CHEMBL3727359, “Methods and compositions for treating or preventing pruritis” (2012).

The target in experiment [1] is T1, Mas-related G-protein coupled receptor member X1 (Homo sapiens, UniProt Q96LB2). In words: Antagonist activity at MrgX1 in mouse or rat DRG neurons assessed as intracellular Ca2+ level by FLIPR assay. In kind it is functional, cell-based.
T1 sequence (Q96LB2 whole entry, looked up): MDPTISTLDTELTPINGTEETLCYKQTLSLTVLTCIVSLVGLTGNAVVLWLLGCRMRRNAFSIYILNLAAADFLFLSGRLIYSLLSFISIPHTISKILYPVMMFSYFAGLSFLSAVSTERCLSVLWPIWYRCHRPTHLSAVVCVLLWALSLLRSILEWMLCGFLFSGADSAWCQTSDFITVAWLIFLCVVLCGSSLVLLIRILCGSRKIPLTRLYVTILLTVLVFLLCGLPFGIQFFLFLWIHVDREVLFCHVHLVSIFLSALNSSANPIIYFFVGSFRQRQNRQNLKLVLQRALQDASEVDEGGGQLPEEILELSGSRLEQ
Experiment [2] has as its target T1, Mas-related G-protein coupled receptor member X1. Put plainly: Antagonist activity at MrgX1 in mouse or rat DRG neurons assessed as action potential by whole-cell patch clamp method. The class given is functional. A general note: The patch-clamp technique gives a direct electrical read-out from membranes.

`N#Cc1ccc(COC2C3CCN(CC3)C2C(c2ccccc2)c2ccccc2)cc1` (configuration not stated): the IC50 in experiment [1] amounted to 0.632 µM; in experiment [2], 5.6 µM.
